According to ChEMBL document CHEMBL4028801, “A multifactorial approach to hepatobiliary transporter assessment enables improved therapeutic compound development” (Toxicol Sci, 2013):
Blank lines part the entries; values can stand above or below the molecule they belong to.

How the values were obtained:
[1] = biological target: T1, ATP-binding cassette sub-family C member 4 (Homo sapiens, UniProt O15439); assay: Inhibition of human MRP4 overexpressed in Sf9 cell membrane vesicles assessed as uptake of [3H]-estradiol-17beta-D-glucuronide in presence of ATP and GSH measured after 20 mins by membrane vesicle transport assay; assay type: ADME, cell-based
T1 sequence (O15439 whole entry): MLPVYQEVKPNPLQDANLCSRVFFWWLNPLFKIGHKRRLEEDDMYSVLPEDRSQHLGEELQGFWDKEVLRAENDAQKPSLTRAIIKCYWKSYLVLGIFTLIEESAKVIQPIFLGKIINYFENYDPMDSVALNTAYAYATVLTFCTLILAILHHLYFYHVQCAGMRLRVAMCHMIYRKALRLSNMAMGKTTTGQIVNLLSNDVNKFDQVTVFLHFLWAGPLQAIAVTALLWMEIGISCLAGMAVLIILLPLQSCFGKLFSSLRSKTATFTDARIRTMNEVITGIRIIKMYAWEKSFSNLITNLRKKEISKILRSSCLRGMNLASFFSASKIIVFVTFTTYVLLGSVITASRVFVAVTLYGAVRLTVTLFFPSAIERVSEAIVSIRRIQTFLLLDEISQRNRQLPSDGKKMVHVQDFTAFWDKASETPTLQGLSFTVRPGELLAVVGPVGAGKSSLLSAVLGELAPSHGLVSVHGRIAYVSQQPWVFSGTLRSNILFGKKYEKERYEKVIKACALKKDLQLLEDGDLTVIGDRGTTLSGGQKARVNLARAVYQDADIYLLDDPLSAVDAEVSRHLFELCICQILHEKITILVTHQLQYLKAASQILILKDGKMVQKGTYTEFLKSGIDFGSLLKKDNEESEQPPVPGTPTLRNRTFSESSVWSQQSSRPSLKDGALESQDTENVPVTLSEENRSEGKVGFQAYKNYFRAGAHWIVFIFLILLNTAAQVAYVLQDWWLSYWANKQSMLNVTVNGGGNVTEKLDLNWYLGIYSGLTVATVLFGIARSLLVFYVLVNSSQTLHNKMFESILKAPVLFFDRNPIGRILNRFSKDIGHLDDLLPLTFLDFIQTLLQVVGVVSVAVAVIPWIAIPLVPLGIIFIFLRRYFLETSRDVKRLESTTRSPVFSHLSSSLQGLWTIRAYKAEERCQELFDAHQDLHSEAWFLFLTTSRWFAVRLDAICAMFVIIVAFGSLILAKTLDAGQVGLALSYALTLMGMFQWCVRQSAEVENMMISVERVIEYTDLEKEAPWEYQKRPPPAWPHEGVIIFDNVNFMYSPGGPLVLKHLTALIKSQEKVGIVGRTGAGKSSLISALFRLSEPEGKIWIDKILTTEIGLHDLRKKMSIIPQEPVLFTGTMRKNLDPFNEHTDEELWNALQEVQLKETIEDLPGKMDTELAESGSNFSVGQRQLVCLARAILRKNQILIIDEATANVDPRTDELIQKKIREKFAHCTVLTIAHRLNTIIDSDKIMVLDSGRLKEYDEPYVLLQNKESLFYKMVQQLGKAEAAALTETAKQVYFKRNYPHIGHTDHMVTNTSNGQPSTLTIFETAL

[2] = Drug concentration at steady state in human at 150 to 600 mg, iv QD after 24 hrs; assay type: ADME, organism-based; conditions: in vivo, read-out: Css
[3] = Ratio of drug concentration at steady state in human at 150 to 600 mg, iv QD after 24 hrs to IC50 for human MRP4 overexpressed in Sf9 insect cells; assay type: ADME, organism-based; conditions: in vivo
[4] = biological target: ATP-binding cassette sub-family C member 2 (Homo sapiens, UniProt Q92887); assay: Inhibition of human MRP2 overexpressed in Sf9 cell membrane vesicles assessed as uptake of [3H]-estradiol-17beta-D-glucuronide in presence of ATP and GSH measured after 20 mins by membrane vesicle transport assay
[5] = Ratio of drug concentration at steady state in human at 150 to 600 mg, iv QD after 24 hrs to IC50 for human BSEP overexpressed in Sf9 insect cells; assay type: ADME, organism-based; conditions: in vivo
[6] = AUC in human at 150 to 600 mg, iv QD after 24 hrs; assay type: ADME, organism-based; conditions: in vivo
[7] = Ratio of drug concentration at steady state in human at 150 to 600 mg, iv QD after 24 hrs to IC50 for human MRP2 overexpressed in Sf9 insect cells; assay type: ADME, organism-based; conditions: in vivo
[8] = Ratio of drug concentration at steady state in human at 150 to 600 mg, iv QD after 24 hrs to IC50 for human MRP3 overexpressed in Sf9 insect cells; assay type: ADME, organism-based; conditions: in vivo
[9] = biological target: ATP-binding cassette sub-family C member 3 (Homo sapiens, UniProt O15438); assay: Inhibition of human MRP3 overexpressed in Sf9 insect cell membrane vesicles assessed as uptake of [3H]-estradiol-17beta-D-glucuronide in presence of ATP and GSH measured after 10 mins by membrane vesicle transport assay; assay type: ADME, cell-based
[10] = Drug concentration at steady state in human at 100 to 200 mg, po QD after 24 hrs; assay type: ADME, organism-based; conditions: in vivo, read-out: Css
[11] = Ratio of drug concentration at steady state in human at 100 to 200 mg, po QD after 24 hrs to IC50 for human BSEP overexpressed in Sf9 insect cells; assay type: ADME, organism-based; conditions: in vivo
[12] = Ratio of drug concentration at steady state in human at 100 to 200 mg, po QD after 24 hrs to IC50 for human MRP4 overexpressed in Sf9 insect cells; assay type: ADME, organism-based; conditions: in vivo
[13] = AUC in human at 100 to 200 mg, po QD after 24 hrs; assay type: ADME, organism-based; conditions: in vivo
[14] = Ratio of drug concentration at steady state in human at 100 to 200 mg, po QD after 24 hrs to IC50 for human MRP2 overexpressed in Sf9 insect cells; assay type: ADME, organism-based; conditions: in vivo
[15] = biological target: Bile salt export pump (Homo sapiens, UniProt O95342); assay: Inhibition of human BSEP overexpressed in Sf9 cell membrane vesicles assessed as uptake of [3H]-taurocholate in presence of ATP measured after 15 to 20 mins by membrane vesicle transport assay; assay type: ADME, cell-based
[16] = Ratio of drug concentration at steady state in human at 62.5 to 125 mg, po BID after 12 hrs to IC50 for human BSEP overexpressed in Sf9 insect cells; assay type: ADME, organism-based; conditions: in vivo
[17] = system: Homo sapiens; assay: Drug concentration at steady state in human at 62.5 to 125 mg, po BID after 12 hrs; assay type: ADME, organism-based; conditions: in vivo
[18] = Ratio of drug concentration at steady state in human at 62.5 to 125 mg, po BID after 12 hrs to IC50 for human MRP3 overexpressed in Sf9 insect cells; assay type: ADME, organism-based; conditions: in vivo
[19] = AUC in human at 62.5 to 125 mg, po BID after 12 hrs; assay type: ADME, organism-based; conditions: in vivo
[20] = Ratio of drug concentration at steady state in human at 62.5 to 125 mg, po BID after 12 hrs to IC50 for human MRP4 overexpressed in Sf9 insect cells; assay type: ADME, organism-based; conditions: in vivo
[21] = AUC in human at 20 to 25 mg/kg, po TID after 8 hrs; assay type: ADME, organism-based; conditions: in vivo
[22] = Ratio of drug concentration at steady state in human at 20 to 25 mg/kg, po TID after 8 hrs to IC50 for human BSEP overexpressed in Sf9 insect cells; assay type: ADME, organism-based; conditions: in vivo
[23] = Drug concentration at steady state in human at 20 to 25 mg/kg, po TID after 8 hrs; assay type: ADME, organism-based; conditions: in vivo, read-out: Css
[24] = Ratio of drug concentration at steady state in human at 2 to 8 mg, po QD after 24 hrs to IC50 for human BSEP overexpressed in Sf9 insect cells; assay type: ADME, organism-based; conditions: in vivo
[25] = Ratio of drug concentration at steady state in human at 2 to 8 mg, po QD after 24 hrs to IC50 for human MRP4 overexpressed in Sf9 insect cells; assay type: ADME, organism-based; conditions: in vivo
[26] = Drug concentration at steady state in human at 2 to 8 mg, po QD after 24 hrs; assay type: ADME, organism-based; conditions: in vivo, read-out: Css
[27] = AUC in human at 2 to 8 mg, po QD after 24 hrs; assay type: ADME, organism-based; conditions: in vivo

Bile salt export pump, sequence (O95342 whole entry): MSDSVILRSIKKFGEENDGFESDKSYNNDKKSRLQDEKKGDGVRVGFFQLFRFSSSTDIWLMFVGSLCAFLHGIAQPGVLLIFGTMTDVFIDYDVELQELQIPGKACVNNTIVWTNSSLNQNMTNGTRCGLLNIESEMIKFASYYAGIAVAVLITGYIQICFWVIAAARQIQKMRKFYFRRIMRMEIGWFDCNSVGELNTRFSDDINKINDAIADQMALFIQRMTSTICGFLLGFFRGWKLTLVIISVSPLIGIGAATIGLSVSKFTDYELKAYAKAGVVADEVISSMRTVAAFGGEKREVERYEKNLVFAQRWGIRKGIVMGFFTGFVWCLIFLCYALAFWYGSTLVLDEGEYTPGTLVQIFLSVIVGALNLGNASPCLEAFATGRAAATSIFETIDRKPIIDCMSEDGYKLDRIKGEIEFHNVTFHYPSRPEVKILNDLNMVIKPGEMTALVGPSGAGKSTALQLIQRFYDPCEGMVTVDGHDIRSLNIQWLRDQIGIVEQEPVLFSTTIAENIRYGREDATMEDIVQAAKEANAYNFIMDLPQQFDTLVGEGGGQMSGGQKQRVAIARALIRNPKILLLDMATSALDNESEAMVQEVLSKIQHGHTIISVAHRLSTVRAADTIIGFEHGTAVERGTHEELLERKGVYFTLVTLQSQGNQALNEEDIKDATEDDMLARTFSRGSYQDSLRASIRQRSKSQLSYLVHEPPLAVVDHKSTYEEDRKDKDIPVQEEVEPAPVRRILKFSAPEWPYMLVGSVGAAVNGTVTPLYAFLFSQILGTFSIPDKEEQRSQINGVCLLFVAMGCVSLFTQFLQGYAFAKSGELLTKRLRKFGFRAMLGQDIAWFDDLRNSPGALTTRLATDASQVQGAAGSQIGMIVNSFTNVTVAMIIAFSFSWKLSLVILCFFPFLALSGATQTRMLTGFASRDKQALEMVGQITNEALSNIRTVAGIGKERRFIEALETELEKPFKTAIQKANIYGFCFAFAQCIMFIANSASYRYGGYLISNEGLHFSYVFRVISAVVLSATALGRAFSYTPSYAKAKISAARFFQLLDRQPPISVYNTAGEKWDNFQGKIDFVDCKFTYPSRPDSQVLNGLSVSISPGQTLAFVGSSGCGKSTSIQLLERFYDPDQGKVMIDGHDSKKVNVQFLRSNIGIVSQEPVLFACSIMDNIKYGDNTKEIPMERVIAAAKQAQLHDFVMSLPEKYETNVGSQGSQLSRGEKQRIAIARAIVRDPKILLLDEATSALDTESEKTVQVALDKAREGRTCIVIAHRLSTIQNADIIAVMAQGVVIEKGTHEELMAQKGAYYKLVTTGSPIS
ATP-binding cassette sub-family C member 3, sequence (O15438 whole entry): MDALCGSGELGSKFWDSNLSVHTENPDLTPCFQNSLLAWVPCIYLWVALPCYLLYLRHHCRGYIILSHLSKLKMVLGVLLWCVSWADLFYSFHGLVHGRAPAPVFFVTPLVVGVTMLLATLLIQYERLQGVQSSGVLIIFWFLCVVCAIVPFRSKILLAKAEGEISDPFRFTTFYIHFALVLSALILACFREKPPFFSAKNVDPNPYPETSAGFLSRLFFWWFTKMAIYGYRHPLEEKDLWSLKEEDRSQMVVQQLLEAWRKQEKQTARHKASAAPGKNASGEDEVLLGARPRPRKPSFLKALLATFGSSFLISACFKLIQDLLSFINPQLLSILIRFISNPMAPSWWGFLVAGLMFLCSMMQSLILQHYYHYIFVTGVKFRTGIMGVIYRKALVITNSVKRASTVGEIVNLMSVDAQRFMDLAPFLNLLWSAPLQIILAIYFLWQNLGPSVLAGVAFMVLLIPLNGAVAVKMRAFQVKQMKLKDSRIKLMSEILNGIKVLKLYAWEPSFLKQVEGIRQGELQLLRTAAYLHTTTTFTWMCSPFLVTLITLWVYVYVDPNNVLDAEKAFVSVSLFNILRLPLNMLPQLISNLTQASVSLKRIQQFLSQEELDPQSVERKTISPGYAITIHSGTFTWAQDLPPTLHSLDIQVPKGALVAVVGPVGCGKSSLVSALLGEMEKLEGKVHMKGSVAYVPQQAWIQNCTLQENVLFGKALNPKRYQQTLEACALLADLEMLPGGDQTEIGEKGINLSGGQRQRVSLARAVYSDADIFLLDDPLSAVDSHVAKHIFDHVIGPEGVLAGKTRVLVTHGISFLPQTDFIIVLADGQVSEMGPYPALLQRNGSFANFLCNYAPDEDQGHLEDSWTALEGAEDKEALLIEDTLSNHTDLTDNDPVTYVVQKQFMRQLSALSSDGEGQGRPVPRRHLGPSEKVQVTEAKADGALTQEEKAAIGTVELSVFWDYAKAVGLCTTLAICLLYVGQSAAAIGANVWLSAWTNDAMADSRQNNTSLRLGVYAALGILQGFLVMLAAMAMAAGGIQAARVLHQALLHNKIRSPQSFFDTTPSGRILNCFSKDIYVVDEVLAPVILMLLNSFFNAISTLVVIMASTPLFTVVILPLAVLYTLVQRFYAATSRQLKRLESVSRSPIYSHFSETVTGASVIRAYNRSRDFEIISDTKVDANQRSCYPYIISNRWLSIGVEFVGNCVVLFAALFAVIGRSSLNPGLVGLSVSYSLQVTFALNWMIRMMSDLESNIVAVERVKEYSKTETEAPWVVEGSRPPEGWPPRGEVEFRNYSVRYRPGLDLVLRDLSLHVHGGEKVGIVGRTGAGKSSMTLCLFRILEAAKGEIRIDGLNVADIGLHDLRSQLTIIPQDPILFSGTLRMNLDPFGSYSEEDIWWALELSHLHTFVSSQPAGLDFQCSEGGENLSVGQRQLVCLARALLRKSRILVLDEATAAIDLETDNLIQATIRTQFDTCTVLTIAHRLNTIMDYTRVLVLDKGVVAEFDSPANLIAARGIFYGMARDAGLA
ATP-binding cassette sub-family C member 2, sequence (Q92887 whole entry): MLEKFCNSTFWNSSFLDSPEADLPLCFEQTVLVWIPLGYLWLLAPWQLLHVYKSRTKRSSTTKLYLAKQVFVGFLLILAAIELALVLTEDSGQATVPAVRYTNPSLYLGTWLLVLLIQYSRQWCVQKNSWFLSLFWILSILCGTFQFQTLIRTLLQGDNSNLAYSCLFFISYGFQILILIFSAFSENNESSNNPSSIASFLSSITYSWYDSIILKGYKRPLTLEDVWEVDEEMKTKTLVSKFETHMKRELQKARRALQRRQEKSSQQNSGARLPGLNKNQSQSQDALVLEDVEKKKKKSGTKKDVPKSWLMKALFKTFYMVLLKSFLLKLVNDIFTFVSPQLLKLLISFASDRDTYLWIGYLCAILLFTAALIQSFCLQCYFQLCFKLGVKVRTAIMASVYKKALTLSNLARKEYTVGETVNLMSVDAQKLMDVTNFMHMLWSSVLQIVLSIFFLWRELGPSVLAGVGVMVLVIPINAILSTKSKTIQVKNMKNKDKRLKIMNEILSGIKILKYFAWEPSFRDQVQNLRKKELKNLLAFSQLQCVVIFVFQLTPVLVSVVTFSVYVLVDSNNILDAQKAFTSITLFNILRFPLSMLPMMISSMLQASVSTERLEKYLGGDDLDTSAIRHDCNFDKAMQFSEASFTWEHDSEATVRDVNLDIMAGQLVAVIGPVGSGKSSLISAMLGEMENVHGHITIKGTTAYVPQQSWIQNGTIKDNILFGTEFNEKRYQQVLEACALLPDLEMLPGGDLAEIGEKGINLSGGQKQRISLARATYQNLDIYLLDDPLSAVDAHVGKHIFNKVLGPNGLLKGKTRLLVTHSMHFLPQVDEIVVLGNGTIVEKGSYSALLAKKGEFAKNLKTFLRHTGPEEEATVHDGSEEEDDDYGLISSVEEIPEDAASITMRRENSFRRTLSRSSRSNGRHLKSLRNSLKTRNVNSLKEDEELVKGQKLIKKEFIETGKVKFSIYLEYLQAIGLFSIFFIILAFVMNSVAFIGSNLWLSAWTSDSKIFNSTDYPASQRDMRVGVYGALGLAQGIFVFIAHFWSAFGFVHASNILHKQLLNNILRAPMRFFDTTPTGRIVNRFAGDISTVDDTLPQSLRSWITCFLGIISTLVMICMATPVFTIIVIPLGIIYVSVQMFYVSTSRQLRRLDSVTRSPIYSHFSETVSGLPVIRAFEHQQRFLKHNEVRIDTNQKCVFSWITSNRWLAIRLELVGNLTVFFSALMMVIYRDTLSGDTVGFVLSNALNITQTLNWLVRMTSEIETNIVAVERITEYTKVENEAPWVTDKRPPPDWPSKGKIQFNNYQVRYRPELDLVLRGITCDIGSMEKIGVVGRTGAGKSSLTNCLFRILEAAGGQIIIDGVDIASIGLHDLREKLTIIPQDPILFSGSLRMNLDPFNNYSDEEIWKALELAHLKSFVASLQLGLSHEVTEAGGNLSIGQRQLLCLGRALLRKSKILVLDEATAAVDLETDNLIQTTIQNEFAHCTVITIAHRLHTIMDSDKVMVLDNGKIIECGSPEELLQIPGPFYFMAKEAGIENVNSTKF

- IC50 [1]: 41.9 µM
- concentration at 24 h [2]: 3.73 µM
- Ratio [3]: 0.089
- IC50 [4]: 53 µM
- AUC at 24 h [6]: 89.4 µM·h
- Ratio [7]: 0.07
- Ratio [8]: 0.054
- IC50 [9]: 69 µM
SMILES: CO[C@H]1/C=C/O[C@@]2(C)Oc3c(C)c(O)c4c(O)c(c(/C=N/N5CCN(C)CC5)c(O)c4c3C2=O)NC(=O)/C(C)=C\C=C\[C@H](C)[C@H](O)[C@@H](C)[C@@H](O)[C@@H](C)[C@H](OC(C)=O)[C@@H]1C [RIFAMPIN]
- Ratio [5]: 0.147

- concentration at 24 h [10]: 1.88 µM
- IC50 [1]: 17 µM
- Ratio [12]: 0.11
- IC50 [4]: 41.6 µM
- AUC at 24 h [13]: 45 µM·h
- Ratio [14]: 0.045
- IC50 [9]: > 133 µM
SMILES: CCc1oc2ccccc2c1C(=O)c1cc(Br)c(O)c(Br)c1 [BENZBROMARONE]
- Ratio [11]: 0.107

- IC50 [1]: 22 µM
- Css [17]: 1.347 µM
- Ratio [18]: 0.032
- AUC at 12 h [19]: 16.2 µM·h
- Ratio [20]: 0.061
- IC50 [9]: 42 µM
SMILES: COc1ccccc1Oc1c(NS(=O)(=O)c2ccc(C(C)(C)C)cc2)nc(-c2ncccn2)nc1OCCO [BOSENTAN]
- IC50 [15]: 23 µM
- Ratio [16]: 0.059

- IC50 [1]: > 133 µM
- IC50 [4]: > 133 µM
- AUC at 8 h [21]: 50.4 µM·h
- concentration at 8 h [23]: 6.3 µM
- IC50 [9]: > 133 µM
SMILES: O=C(C1CCCCC1)N1CC(=O)N2CCc3ccccc3C2C1 (centres undefined) [PRAZIQUANTEL]
- IC50 [15]: 67.1 µM
- Ratio [22]: 0.094

- IC50 [1]: 21 µM
- Ratio [25]: 0.016
- concentration at 24 h [26]: 0.334 µM
- IC50 [9]: > 133 µM
- AUC at 24 h [27]: 8.02 µM·h
SMILES: CN(CCOc1ccc(CC2SC(=O)NC2=O)cc1)c1ccccn1 (centres undefined) [ROSIGLITAZONE]
- IC50 [15]: 2.8 µM
- Ratio [24]: 0.119
